# According to BindingDB's records for doi:10.7270/Q2736PC9 (Broad Institute, 2010):
# Target: T1, Alkanal monooxygenase alpha chain (Vibrio harveyi, UniProt P07740)
# T1 sequence (P07740 whole entry): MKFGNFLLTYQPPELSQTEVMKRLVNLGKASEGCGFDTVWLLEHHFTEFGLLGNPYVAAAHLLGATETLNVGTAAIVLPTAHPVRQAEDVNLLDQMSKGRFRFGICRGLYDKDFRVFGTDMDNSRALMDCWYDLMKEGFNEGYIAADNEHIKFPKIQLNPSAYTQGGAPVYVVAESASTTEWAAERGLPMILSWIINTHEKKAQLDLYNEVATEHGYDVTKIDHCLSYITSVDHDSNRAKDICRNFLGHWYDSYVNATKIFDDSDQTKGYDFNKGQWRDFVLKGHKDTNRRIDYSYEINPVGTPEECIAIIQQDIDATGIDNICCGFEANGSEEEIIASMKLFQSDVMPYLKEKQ
# Assay: Vibrio harveyi growth inhibition, dose response, counter-screen for quorum sensing inhibitor project, absorbance (AID 434943)
row,EC50 [µM],Compound
1,> 160,C=Cn1c(C(=O)O)ccc1-c1ccc(CC)cc1
2,> 160,COc1cc(NC(=O)CN2C(=O)NC(c3ccccc3)(c3ccccc3)C2=O)cc(OC)c1 [MLS001176525]
3,> 160,CCc1ccc(S(=O)(=O)Nc2ccc(Br)cn2)cc1 [MLS001211346]
4,> 160,CCCc1ccc(S(=O)(=O)N(C)S(=O)(=O)c2ccc(F)cc2)cc1 [N-(4-fluorophenyl)sulfonyl-N-methyl-4-propylbenzenesulfonamide]
5,> 160,CN(C)S(=O)(=O)c1ccc(NC(=S)NC(=O)Cc2ccccc2)cc1 [N-[[4-(dimethylsulfamoyl)phenyl]carbamothioyl]-2-phenyl-ethanamide]
6,> 160,Cc1cccc(NS(=O)(=O)c2ccc(Oc3ccccc3)cc2)n1 [SMR000071466]
7,> 160,Cn1cnc(S(=O)(=O)Nc2ccc(OC(F)(F)F)cc2)c1 [SMR000314513]
